Laboratory results published in US9029377B2, “Platelet-activating factor receptor antagonists” (Merck Sharp & Dohme Corp., priority 2009, dated 2015).

What follows are compounds tested against PAFR (Homo sapiens, UniProt P25105) (assay: PAF Binding Assay (PAFR binding)).
Sequence of PAFR (P25105 whole entry): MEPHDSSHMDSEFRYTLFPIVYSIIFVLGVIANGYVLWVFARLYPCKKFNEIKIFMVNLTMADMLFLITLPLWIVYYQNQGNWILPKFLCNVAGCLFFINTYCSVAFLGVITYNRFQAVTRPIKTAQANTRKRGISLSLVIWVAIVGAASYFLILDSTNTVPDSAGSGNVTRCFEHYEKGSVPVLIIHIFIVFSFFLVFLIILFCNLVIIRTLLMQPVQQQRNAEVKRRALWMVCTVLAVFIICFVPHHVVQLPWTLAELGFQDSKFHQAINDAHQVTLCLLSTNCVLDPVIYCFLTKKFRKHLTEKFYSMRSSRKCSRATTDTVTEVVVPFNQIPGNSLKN

Which IC50 does the source give for `CCc1cc(-c2cccnc2OCC(F)(F)F)cc(S(=O)(=O)N[C@H]2CCC[C@@H](n3cnnc3)C2)c1` [Compound 3Bam, 3-ethyl-N-[(1S,3R)-3-(4H-1,2,4-triazol-4-yl)cyclohexyl]-5-[2-(2,2,2-trifluoroethoxy)pyridin-3-yl]benzenesulfonamide] here?
Its IC50 is 9.5 nM.

Which IC50 does the source give for `CCc1cc(-c2noc(C3CC3)n2)ccc1S(=O)(=O)N[C@H]1CCC[C@@H](n2cnnc2C)C1` [Compound 2Abb, 4-(5-cyclopropyl-1,2,4-oxadiazol-3-yl)-2-ethyl-N-[(1S,3R)-3-(3-methyl-4H-1,2,4-triazol-4-yl)cyclohexyl]benzenesulfonamide] here?
Its IC50 is 2 nM.

How did the IC50 turn out when `CCc1cc(-c2ccc(OC(C)C)nc2)ccc1S(=O)(=O)N[C@H]1CCC[C@@H](n2cnnc2C)C1` [Compound 2Abc, 2-ethyl-4-(6-isopropoxypyridin-3-yl)-N-[(1S,3R)-3-(3-methyl-4H-1,2,4-triazol-4-yl)cyclohexyl]benzenesulfonamide] was run?
Its IC50 is 0.5 nM.

How did the IC50 turn out when `CCCCOc1ccc(S(=O)(=O)N[C@H]2CCC[C@@H](n3cnnc3C)C2)c(F)c1` [Compound 2Ji, 4-butoxy-2-fluoro-N-[(1S,3R)-3-(3-methyl-4H-1,2,4-triazol-4-yl)cyclohexyl]benzenesulfonamide] was run?
Its IC50 is 4 nM.

With `O=S(=O)(N[C@H]1CCC[C@@H](n2cnnc2)C1)c1ccc(-c2ccc(OCC(F)(F)F)cc2)c(F)c1` [Compound 2Eb, 2-fluoro-N-[(1S,3R)-3-(4H-1,2,4-triazol-4-yl)cyclohexyl]-4′-(2,2,2-trifluoroethoxy)biphenyl-4-sulfonamide] as the compound, how does the IC50 read?
Its IC50 is 0.7 nM.

With `CCc1cc(-c2ccc(OC)nc2)ccc1S(=O)(=O)N[C@H]1CCC[C@@H](n2cnnc2)C1` [Compound 2Ag, 2-ethyl-4-(6-methoxypyridin-3-yl)-N-[(1S,3R)-3-(4H-1,2,4-triazol-4-yl)cyclohexyl]benzenesulfonamide] as the compound, how does the IC50 read?
The IC50 was 9.9 nM.

`CCc1cc(-c2ccccc2OC)ccc1S(=O)(=O)N[C@H]1CCC[C@@H](n2cnnc2)C1` [Compound 2As, 3-ethyl-2′-methoxy-N-[(1S,3R)-3-(4H-1,2,4-triazol-4-yl)cyclohexyl]biphenyl-4-sulfonamide] was tested. Which IC50 did it give?
Its IC50 is 16 nM.

With `O=S(=O)(N[C@H]1CCC[C@@H](n2cnnc2C2CC2)C1)c1ccc(-c2noc(C3CCC3)n2)cc1OC(F)(F)F` [Compound 2Bc, 4-(5-cyclobutyl-1,2,4-oxadiazol-3-yl)-N-[(1S,3R)-3-(3-cycloropyl-4H-1,2,4-triazol-4-yl)cyclohexyl]-2-(trifluoromethoxy)benzenesulfonamide] as the compound, how does the IC50 read?
Its IC50 is 2.5 nM.

For `O=S(=O)(N[C@H]1CCC[C@@H](n2cnnc2)C1)c1ccc(-c2noc(C3CC3)n2)cc1C1CC1` [Compound 2Ka, 2-cyclopropyl-4-(5-cyclopropyl-1,2,4-oxadiazol-3-yl)-N-[(1S,3R)-3-(4H-1,2,4-triazol-4-yl)cyclohexyl]benzenesulfonamide], which IC50 is on record?
The IC50 was 2.7 nM.

With `O=S(=O)(N[C@H]1CCC[C@@H](n2cnnc2)C1)c1cc(-c2ccc(O)nc2)cc(C(F)(F)F)c1` [Compound 3Ai, 3-(6-hydroxypyridin-3-yl)-N-[(1S,3R)-3-(4H-1,2,4-triazol-4-yl)cyclohexyl]-5-(trifluoromethyl)benzenesulfonamide] as the compound, how does the IC50 read?
The IC50 was 526 nM.

For `CCCCOc1ccc(S(=O)(=O)N[C@H]2CCC[C@@H](n3cnnc3C3CC3)C2)c(F)c1` [Compound 2Oag, 4-butoxy-N-[(1S,3R)-3-(3-cyclopropyl-4H-1,2,4-triazol-4-yl)cyclohexyl]-2-fluorobenzenesulfonamide], which IC50 is on record?
Its IC50 is 7.2 nM.

With `Cc1nncn1[C@@H]1CCC[C@H](NS(=O)(=O)c2ccc(-c3ccc(OC(C)C)nc3)c(F)c2)C1` [Compound 2Fe, 3-fluoro-4-(6-isopropoxypyridin-3-yl)-N-[(1S,3R)-3-(3-methyl-4H-1,2,4-triazol-4-yl)cyclohexyl]benzenesulfonamide] as the compound, how does the IC50 read?
Its IC50 is 3.6 nM.

`O=S(=O)(N[C@H]1CCC[C@@H](n2cnnc2)C1)c1ccc(-c2ccc(OC(F)(F)F)cc2)cc1OC(F)(F)F` [Compound 2Bal, N-[(1S,3R)-3-(4H-1,2,4-triazol-4-yl)cyclohexyl]-3,4′-bis(trifluoromethoxy)biphenyl-4-sulfonamide] was tested. Which IC50 did it give?
Its IC50 is 15 nM.

With `Cc1nncn1[C@@H]1CCC[C@H](NS(=O)(=O)c2ccc(-c3cnc(Cl)c(F)c3)c(F)c2)C1` [Compound 2Fg, 4-(6-chloro-5-fluoropyridin-3-yl)-3-fluoro-N-[(1S,3R)-3-(3-methyl-4H-1,2,4-triazol-4-yl)cyclohexyl]benzenesulfonamide] as the compound, how does the IC50 read?
Its IC50 is 36 nM.

Which IC50 does the source give for `CCc1cc(-c2ccc(C)nc2)ccc1S(=O)(=O)N[C@H]1CCC[C@@H](n2cnnc2)C1` [Compound 2Ai, 2-ethyl-4-(6-methylpyridin-3-yl)-N-[(1S,3R)-3-(4H-1,2,4-triazol-4-yl)cyclohexyl]benzenesulfonamide] here?
The IC50 was 119 nM.

Which IC50 does the source give for `CCc1cc(OCCC(F)(F)F)ccc1S(=O)(=O)N[C@H]1CCC[C@@H](n2cnnc2)C1` [Compound 2Abk, 2-ethyl-N-[(1S,3R)-3-(4H-1,2,4-triazol-4-yl)cyclohexyl]-4-(3,3,3-trifluoropropoxy)benzenesulfonamide] here?
The IC50 was 22 nM.

`Cc1cn(-c2ccc(S(=O)(=O)N[C@H]3CCC[C@@H](n4cnnc4C)C3)cc2)cn1` [Compound 2Nt, 4-(4-methyl-1H-imidazol-1-yl)-N-[(1S,3R)-3-(3-methyl-4H-1,2,4-triazol-4-yl)cyclohexyl]benzenesulfonamide] was tested. Which IC50 did it give?
The IC50 was 870 nM.

`CCc1cc(-c2cccc(F)c2)ccc1S(=O)(=O)N[C@H]1CCC[C@@H](n2cnnc2)C1` [2 Am, 3-ethyl-3′-fluoro-N-[(1S,3R)-3-(4H-1,2,4-triazol-4-yl)cyclohexyl]benzenesulfonamide] was tested. Which IC50 did it give?
The IC50 was 33 nM.

With `CCc1cc(-c2ccc(OC(F)(F)F)cc2C)ccc1S(=O)(=O)N[C@H]1CCC[C@@H](n2cnnc2)C1` [Compound 2Abl, 3-ethyl-2′-methyl-N-[(1S,3R)-3-(4H-1,2,4-triazol-4-yl)cyclohexyl]-4′-(trifluoromethoxy)biphenyl-4-sulfonamide] as the compound, how does the IC50 read?
The IC50 was 30 nM.

Which IC50 does the source give for `CCc1cc(-c2ccc(F)c(F)c2)ccc1S(=O)(=O)N[C@H]1CCC[C@@H](n2cnnc2)C1` [Compound 2Aw, 3-ethyl-3′,4′-difluoro-N-[(1S,3R)-3-(4H-1,2,4-triazol-4-yl)cyclohexyl]biphenyl-4-sulfonamide] here?
Its IC50 is 24 nM.

`O=S(=O)(N[C@H]1CCC[C@@H](n2cnnc2)C1)c1cc(F)cc(-c2ccccc2)c1` [Compound 3Fa, 5-fluoro-N-[(1S,3R)-3-(4H-1,2,4-triazol-4-yl)cyclohexyl]biphenyl-3-sulfonamide] was tested. Which IC50 did it give?
The IC50 was 10 nM.

How did the IC50 turn out when `CCc1cc(-c2ccc(OC(C)C)nc2)ccc1S(=O)(=O)N[C@H]1CCC[C@@H](n2cnnc2)C1` [Compound 2Aai, 2-ethyl-4-(6-isopropoxypyridin-3-yl)-N-[(1S,3R)-3-(4H-1,2,4-triazol-4-yl)cyclohexyl]benzenesulfonamide] was run?
Its IC50 is 1.8 nM.
